Patent US20210246115A1 (Bioimics AB, priority 2017, published 2021)
Converted amounts (≈) assume the structure as drawn. Structures can show the parent of a compound that is named as a salt. Where two headings read alike, the source gives them in different places.

Key:
[1] = tested on: Staphylococcus aureus subsp. aureus (ATCC29213); test: MIC, broth microdilution (CLSI), Staphylococcus aureus ATCC29213; assay type: cell-based; details: for MIC: Staphylococcus aureus
[2] = tested on: Escherichia coli (ATCC25922); test: MIC, broth microdilution (CLSI), Escherichia coli; details: Escherichia coli, ATCC25922, read-out: E. coli ATCC 25922 MIC, Table XIII
[3] = tested on: E. coli RNase P RNA, M1 RNA; test: Inhibition of bacterial RNase P activity, IC50 determination (cleavage of pATSerUG by M1 RNA); assay type: biochemical; details: NI: No inhibition
[4] = ATCC29213, Table XIII, read-out: S. aureus ATCC 29213 MIC
[5] = ATCC29213, read-out: S. aureus ATCC 29213 MIC, Table XIII

Row | SMILES | MIC [1, 4] | MIC [2] | IC50 [3] | MIC [1, 5] | S. aureus ATCC 29213 MIC ([1]; Table XIII, hydrochloride salt) | IC50 ([3]; hydrochloride salt)
1 | N#Cc1ccc2c(C(CCNC3CCC(N)CC3)c3cccc(OC(F)(F)F)c3)cn(C3CCCCC3)c2c1 [Compound 415, 3-(3-(((1S,4S)-4-aminocyclohexyl)amino)-1-(3-(trifluoromethoxy)phenyl)propyl)-1-cyclohexyl-1H-indole-6-carbonitrile hydrochloride salt] |  | 16 µg/mL | 16 µM | 4 µg/mL |  | 
2 | Cc1cccc(C(CCNC2CCC(N)CC2)c2cn(C3CCCCC3)c3ccccc23)c1 (stereo not drawn) [Compound 308, N1-(3-(1-cyclohexyl-1H-indol-3-yl)-3-(m-tolyl)propyl)cyclohexane-1,4-diamine hydrochloride salt] |  | 4 µg/mL |  |  | 4 µg/mL | 29 µM
3 | Cl.Cl.N[C@H]1CC[C@H](NCCCc2cn(C3CCCCC3)c3ccc(C4CCCCC4)cc23)CC1 [Compound 398, (1r,4r)-N1-(3-(1,5-dicyclohexyl-1H-indol-3-yl)propyl)cyclohexane-1,4-diamine hydrochloride salt] | 2 µg/mL | 4 µg/mL | 9 µM |  |  | 
4 | Cc1cccc(C(CCNCCCN)c2cn(C3CC4CCC3C4)c3ccccc23)c1.Cl.Cl (stereo not drawn) [Compound 341, N1-(3-(1-(bicyclo[2.2.1]heptan-2-yl)-1H-indol-3-yl)-3-(m-tolyl)propyl)propane-1,3-diamine hydrochloride salt] | 8 µg/mL | 4 µg/mL | 32 µM |  |  | 
5 | NC1CCC(NCCC(c2cccc(OC(F)(F)F)c2)c2cn(C3CCCCC3)c3ccccc23)CC1 [Compound 393, (1S,4S)- -N1-(3-(1-cyclohexyl-1H-indol-3-yl)-3-(3-(trifluoromethoxy)phenyl)propyl)cyclohexane-1,4-diamine hydrochloride salt] |  | 8 µg/mL |  | 4 µg/mL |  | 16 µM
6 | Cc1cccc(CC(CCNC2CCNCC2)c2cn(C3CCCCC3)c3ccccc23)c1 (stereo not drawn) [Compound 418, N-(3-(1-cyclohexyl-1H-indol-3-yl)-4-(m-tolyl)butyl)piperidin-4-amine hydrochloride salt] |  | 4 µg/mL | 17 µM | 8 µg/mL |  | 
7 | Cc1cccc(C(CCNCCCN)c2cn(C3CCCCC3)c3ccccc23)c1.Cl.Cl (stereo not drawn) [Compound 310, N1-(3-(1-cyclohexyl-1H-indol-3-yl)-3-(m-tolyl)propyl)propane-1,3-diamine hydrochloride salt] | 4 µg/mL | 4 µg/mL |  |  |  | 18 µM
8 | Cc1cccc(C(CCNCCCN)c2cn(C3CCCC3)c3ccccc23)c1.Cl.Cl (stereo not drawn) [Compound 334, N1-(3-(1-cyclopentyl-1H-indol-3-yl)-3-(m-tolyl)propyl)propane-1,3-diamine hydrochloride salt] | 8 µg/mL | 8 µg/mL | 68 µM |  |  | 
9 | Cc1cccc(C(CCNCCCN)c2cn(CC3CCCCC3)c3ccc([N+](=O)[O-])cc23)c1 (stereo not drawn) [Compound 424, N1-(3-(1-cyclohexylmethyl)-5-nitro-1H-indol-3-yl)-3-(m-tolyl)propyl)propane-1,3-diamine hydrochloride salt] | 2 µg/mL | 4 µg/mL | 8.5 µM |  |  | 
10 | Cc1cccc(C(CCNCCCN)c2cn(C3CCCCC3)c3ccc(Br)cc23)c1.Cl.Cl (stereo not drawn) [Compound 655, N1-(3-(5-bromo-1-cyclohexyl-1H-indol-3-yl)-3-(m-tolyl)propyl)propane-1,3-diamine hydrochloride salt] | 4 µg/mL | 4 µg/mL | 11 µM |  |  | 
11 | Cl.Cl.c1cncc(C(CCNC2CCNCC2)c2cn(CC3CCCCC3)c3ccccc23)c1 (stereo not drawn) [Compound 320, N-(3-(1-(cyclohexylmethyl)-1H-indol-3-yl)-3-(pyridin-3-yl)propyl) piperidin-4-amine hydrochloride salt] | 128 µg/mL | 128 µg/mL |  |  |  | 
12 | Cc1cccc(C(CCOC2OC(CO)C(O)C(O)C2O)c2cn(C3CCCCC3)c3ccccc23)c1 (stereo not drawn) [Compound 388, 2-(3-(1-cyclohexyl-1H-indol-3-yl)-3-(m-tolyl)propoxy)-6-(hydroxymethyl) tetrahydro-2H-pyran-3,4,5-triol] | 16 µg/mL (≈ 31.4 µM) | > 128 µg/mL |  |  |  | 
13 | Cc1cccc(C(CCNCCCN)c2cn(CC3CCNCC3)c3ccccc23)c1 (stereo not drawn) [Compound 314, N1-(3-(1-(piperidin-4-ylmethyl)-1H-indol-3-yl)-3-(m-tolyl)propyl)propane-1,3-diamine hydrochloride salt] |  | > 128 µg/mL |  | 16 µg/mL |  | 
14 | COc1cccc(C(CCNC2CCC(N)CC2)c2cn(C3CCCCC3)c3ccc(C#N)cc23)c1 (stereo not drawn) [Compound 400, 3-(3-(((1s,4s)-4-aminocyclohexyl)amino)-1-(3-methoxyphenyl)propyl)-1-cyclohexyl-1H-indole-5-carbonitrile hydrochloride salt] |  | 16 µg/mL |  | 16 µg/mL |  | 

Now from value to compound, other results behind:

Row | MIC [1, 4] | MIC [2] | IC50 [3] | SMILES | MIC [1, 5] | S. aureus ATCC 29213 MIC ([1]; Table XIII, hydrochloride salt) | IC50 ([3]; hydrochloride salt)
15 | 4 µg/mL (≈ 7.12 µM) | > 128 µg/mL | 21 µM | Cc1cccc(C(CCNCCCNS(=O)(=O)c2ccc(F)cc2)c2cn(C3CCCCC3)c3ccccc23)c1 (stereo not drawn) [Compound 365, N-(3-((3-(1-cyclohexyl-1H-indol-3-yl)-3-(m-tolyl)propyl)amino)propyl)-4-fluorobenzenesulfonamide] |  |  | 
16 | 4 µg/mL | 4 µg/mL | 4.7 µM | Cc1cccc(-c2ccc3c(c2)c(CCCNCCCN)cn3CC2CCCCC2)c1.Cl.Cl [Compound 375, N1-(3-(1-(cyclohexylmethyl)-5-(m-tolyl)-1H-indol-3-yl)propyl)propane-1,3-diamine hydrochloride salt] |  |  | 
17 | 2 µg/mL | 4 µg/mL | 2.8 µM | CCCCCCCCn1cc(C(CCNCCCN)C2CCCCC2)c2ccccc21.Cl.Cl (stereo not drawn) [Compound 417, N1-(3-cyclohexyl-3-(1-octyl-1H-indol-3-yl)propyl)propane-1,3-diamine hydrochloride salt] |  |  | 
18 | 4 µg/mL | 4 µg/mL | 20 µM | Cl.Cl.N#Cc1ccc2c(c1)c(C(CCNCCCN)C1CCCCC1)cn2C1CCCCC1 (stereo not drawn) [Compound 382, 3-(3-((3 - aminopropyl)amino)-1-cyclohexylpropyl)-1-cyclohexyl-1H-indole-5-carbonitrile hydrochloride salt] |  |  | 
19 | 4 µg/mL | 32 µg/mL | 19 µM | Cc1cccc(C(CCNC2CCN(C(=N)N)CC2)c2cn(C3CCCCC3)c3ccccc23)c1.Cl (stereo not drawn) [Compound 353, 4-((3-(1-cyclohexyl-1H-indol-3-yl)-3-(m-tolyl)propyl)amino)piperidine-1-carboximidamide hydrochloride salt] |  |  | 
20 | 4 µg/mL | 16 µg/mL | 39 µM | Cc1cccc(C(CCN[C@H]2CC[C@H](N)CC2)c2cn(C3CCCCC3)c3ccc(-c4ccnn4C)cc23)c1.Cl.Cl (stereo partly drawn) [Compound 409, (1R,4R)-N1-(3-(1-cyclohexyl-5-(1-methyl-1H-pyrazol-5-yl)-1H-indol-3-yl)-3-(m-tolyl)propyl)cyclohexane-1,4-diamine hydrochloride salt] |  |  | 
21 | 16 µg/mL | > 128 µg/mL | 53 µM | Cc1cccc(C(CCNC2CCN(C(N)=O)CC2)c2cn(C3CCCCC3)c3ccccc23)c1.Cl.Cl (stereo not drawn) [Compound 374, 4-((3-(1-cyclohexyl-1H-indol-3-yl)-3-(m-tolyl)propyl)amino)piperidine-1-carboxamide hydrochloride salt] |  |  | 
22 | 4 µg/mL | 8 µg/mL | 21 µM | Cc1cccc(CC(CCNC2CCC(N)CC2)c2cn(C3CCCCC3)c3ccccc23)c1.Cl.Cl [Compound 408, (1R,4R)-N1-(3-(1-cyclohexyl-1H-indol-3-yl)-4-(m-tolyl)butyl)cyclohexane-1,4-diamine hydrochloride salt] |  |  | 
23 | 8 µg/mL | > 128 µg/mL | 120 µM | CC(=O)N1CCC(NCCC(c2cccc(C)c2)c2cn(C3CCCCC3)c3ccccc23)CC1.Cl (stereo not drawn) [Compound 373, 1-(4-((3-(1-cyclohexyl-1H-indol-3-yl)-3-(m-tolyl)propyl)amino)piperidin-1-yl) ethan-1-one salt] |  |  | 
24 | 8 µg/mL | 4 µg/mL | 52 µM | Cl.Cl.NCCCNCCC(c1cccc(F)c1)c1cn(C2CCCCC2)c2ccccc12 (stereo not drawn) [Compound 344, N1-(3-(1-cyclohexyl-1H-indol-3-yl)-3-(3-fluorophenyl)propyl) propane-1,3-diamine hydrochloride salt] |  |  | 
25 | 16 µg/mL | > 128 µg/mL | 120 µM | Cc1cccc(C(CCNCCCN)c2cn(C3CCNCC3)c3ccccc23)c1.Cl.Cl.Cl (stereo not drawn) [Compound 322, N1-(3-(1-(piperidin-4-yl)-1H-indol-3-yl)-3-(m-tolyl)propyl)propane-1,3-diamine hydrochloride salt] |  |  | 
26 | 16 µg/mL | 8 µg/mL |  | Cc1ccccc1C(CCNCCCN)c1cn(C2CCCC2)c2ccccc12.Cl.Cl (stereo not drawn) [Compound 342, N1-(3-(1-cyclopentyl-1H-indol-3-yl)-3-(o-tolyl)propyl)propane-1,3-diamine hydrochloride salt] |  |  | 
27 | 4 µg/mL | 8 µg/mL |  | Cl.Cl.N[C@H]1CC[C@H](NCCC(c2cn(C3CCCCC3)c3ccccc23)C2CCCCC2)CC1 (stereo partly drawn) [Compound 378] |  |  | 
28 | 32 µg/mL | 64 µg/mL |  | Cl.Cl.NCCCNCCC(c1cccnc1)c1cn(C2CC3CCC2C3)c2ccccc12 (stereo not drawn) [Compound 328, N1-(3-(1-(bicyclo[2.2.1]heptan-2-yl)-1H-indol-3-yl)-3-(pyridin-3-yl)propyl)propane-1,3-diamine hydrochloride salt] |  |  | 
29 | 8 µg/mL | > 128 µg/mL |  | Cc1cccc(C(CCN)c2cn(C3CCCCC3)c3ccccc23)c1.Cl (stereo not drawn) [Compound 352, 3-(1-cyclohexyl-1H-indol-3-yl)-3-(m-tolyl)propan-1-amine hydrochloride salt] |  |  | 
30 | 16 µg/mL | 16 µg/mL |  | Cl.Cl.NCCCNCCCc1cn(C2CCCCC2)c2ccc(Br)cc12 [Compound 359, N1-(3-(5-bromo-1-cyclohexyl-1H-indol-3-yl)propyl)propane-1,3-diamine hydrochloride salt] |  |  | 
